Test results as given in PMC5384453, “A multi-functional PEGylated gold(III) compound: potent anti-cancer properties and self-assembly into nanostructures for drug co-delivery” (Chemical Science, 2016).
Read-outs that look alike come from different tables or passages of the source.

Columns and labels:
NCI-H460 = experiment: In vitro cytotoxicity, MTT assay; type: cell-based, human
Procedure: (§7) In vitro cytotoxicity assays. HeLa, NCI-H460, HCT116, A2780, A2780cis and
(§8) cells), respectively, were seeded in 96-well plates for 24 h. The cells were then treated with a serial concentration of gold(III) complexes and incubated at 37 °C under a 5% CO2 atmosphere for 72 h. For nanostructures of 1, 2 and NC1, they were dissolved in
(§9) cisplatin were dissolved in culture medium-DMSO solution mixture (99:1, v/v).
(§10) After incubation for 72 h, MTT in PBS solution (5 mg/mL, 10 μL) was added to each well. The plates were incubated at 37 °C under a 5% CO2 atmosphere for another 4 h, and the cells were lysed by the addition of SDS solution (10%, w/w) with 0.01 M HCl (100 μL). After incubation in dark at 37 °C overnight, the cell viability after treatment was determined by a microtitre plate reader monitoring at the absorbance at 590 nm,

A2780 = experiment: In vitro cytotoxicity, MTT assay; type: cell-based, human
Procedure: as §7, §8, §9, §10

CCD-19Lu = experiment: In vitro cytotoxicity, MTT assay; type: cell-based, human; details: 72 h incubation
Procedure: as §7, §8, §9, §10

HCT116 = experiment: In vitro cytotoxicity, MTT assay; type: cell-based, human
Procedure: as §7, §8, §9, §10

HCT116 cells [1] = experiment: Hydrolysis in live cells, UPLC-QTOF-MS of cell lysates; type: in vitro ADME, human; details: 2 μM, 24 h
Procedure: Hydrolysis of the gold(III) complexes in live cells was examined by ultra-performance liquid chromatography coupled quadrupole-time-of-flight mass spectrometry (UPLC-QTOF-MS). Colon cancer cells (HCT116) were treated with 1, 2 and 3 (2 μM) for 24 h, harvested and lysed in an acetonitrile–water solution mixture (3 : 1, v/v) prior to UPLC-QTOF-MS analysis. […] Therefore, the peak is attributable to the major metabolite of 1 formed in HCT116 cells. […] This should be attributable to the higher stability of the amide bond versus the ester bond in vitro. […]
which reflected the amount of blue formazan formed. IC50 values were then determined by CompuSyn S6 from three independent measurements.
Study on the release of hydrolyzed product from 1 and 2 in aqueous buffer solutions by ICP-MS. The nanostructures of gold(III) complex was dissolved in PBS solution (pH 7.4; 1 mg/mL) or sodium acetate buffer solution (pH 4.0; 1 mg/mL) and was dialyzed against 1 L of the buffer solution at 37 °C using semipermeable minidialysis tubes (molecular weight cut-off = 1,000 Da; GE Healthcare). At a predetermined time, an aliquot of solution was removed and dissolved in HNO3/HCl solution mixture (9:1, v/v; volume of aliquot: volume of acid mixture = 1:3). The solution mixture was heated at 65 °C with shaking overnight, and the gold content was determined by ICP-MS from three independent aliquots.
Study on the hydrolysis of 1 and 2 in aqueous buffer solutions by 1H NMR. […]
The flow rate was 0.4 mL/min and the injection volume was 2 µL. The UPLC-QTOF-MS chromatograms of 1, 3, 4 and solvent control in acetonitrile were also recorded for the interpretation of UPLC-QTOF-MS chromatograms of the cell lysate. […]
Au1a (2 µM; with 1 vol% DMSO). […] An aliquot of the cell suspension was subjected to Bio-rad protein assay with a microtitre plate reader at the absorbance at 595 nm, using bovine serum albumin as the protein standard. […] The solution mixture was heated at 65 °C with shaking overnight, and the gold content was determined by ICP-MS. […]

HCT116 cells [2] = experiment: FITC-Annexin V staining and flow cytometry; type: cell-based, human; details: HCT116, 2 μM, 24 h
Procedure: (§1) The induction of apoptosis of HCT116 and NCM460 cells by 1 was further studied using FITC-Annexin V staining. […] The quantity of apoptotic cells stained by FITC-Annexin V after treatment with 1 or Au1a was also investigated by flow cytometry. […]
(§2) with gold(III) complexes and FITC-annexin V staining. HCT116 (1×10 5 cells) and […]
(§3) annexin-binding buffer solution. The cells were then incubated with FITC-annexin V […]
(§4) at room temperature in dark for 15 min. The solution was then removed, and the cells were washed with annexin-binding buffer solution. Fluorescence images were then […]
(§5) in ice and analyzed by flow cytometry immediately. […]
(§6) staining and flow cytometry.

NCM460 cells = experiment: FITC-Annexin V staining and flow cytometry; type: cell-based, human; details: NCM460, 2 μM, 24 h
Procedure: as §1, §2, §3, §4, §5, §6

MIHA = experiment: In vitro cytotoxicity, MTT assay; type: cell-based
Procedure: as §7, §8, §9, §10

A2780adr = experiment: In vitro cytotoxicity, MTT assay; type: cell-based, human; details: for IC50: A2780adr
Procedure: as §7, §8, §9, §10

HeLa = experiment: In vitro cytotoxicity, MTT assay; type: cell-based, human; details: for IC50: HeLa
Procedure: as §7, §8, §9, §10

NCM460 = experiment: In vitro cytotoxicity, MTT assay; type: cell-based, human; details: 72 h incubation
Procedure: as §7, §8, §9, §10

A2780cis = experiment: In vitro cytotoxicity, MTT assay; type: cell-based, human
Procedure: as §7, §8, §9, §10

[3] = 72 h, read-out: Total dose at IC50
[4] = MTT assay, 72 h incubation, read-out: IC50

For “[Au(TPP–COO–PEG5000–OCH3)]Cl [Compound 1]”, the “Toxicity toward cancer cells compared to that toward CCD-19Lu cells, NCI-H460” value (NCI-H460; IC50 of CCD-19Lu cells / IC50 of NCI-H460) was 17.9, the “Toxicity toward cancer cells compared to that toward MIHA cells, NCI-H460” value (NCI-H460; IC50 of MIHA cells / IC50 of NCI-H460) was 17.1 and the “Toxicity toward cancer cells compared to that toward NCM460 cells, NCI-H460” value (NCI-H460; IC50 of NCM460 cells / IC50 of NCI-H460) was 19.3. The IC50 (NCI-H460; NCI-H460, MTT assay, 72 h incubation) was 850 ± 70 nM, the IC50 (A2780; A2780, MTT assay, 72 h incubation) was 510 ± 90 nM and the “Toxicity toward cancer cells compared to that toward CCD-19Lu cells, A2780” value (A2780; IC50 of CCD-19Lu cells / IC50 of A2780) was 29.8. The “Toxicity toward cancer cells compared to that toward MIHA cells, A2780” value (A2780; IC50 of MIHA cells / IC50 of A2780) was 28.4, the “Toxicity toward cancer cells compared to that toward NCM460 cells, A2780” value (A2780; IC50 of NCM460 cells / IC50 of A2780) was 32.2 and the IC50 (CCD-19Lu) was 15.2 ± 1.93 µM. For the same substance, the IC50 (HCT116; HCT116, MTT assay, 72 h incubation) was 390 ± 30 nM, the “Toxicity toward cancer cells compared to that toward CCD-19Lu cells, HCT-116” value (HCT116; IC50 of CCD-19Lu cells / IC50 of HCT-116) was 39.0 and the “Toxicity toward cancer cells compared to that toward MIHA cells, HCT-116” value (HCT116; IC50 of MIHA cells / IC50 of HCT-116) was 37.2. For the same substance, the “Toxicity toward cancer cells compared to that toward NCM460 cells, HCT-116” value (HCT116; IC50 of NCM460 cells / IC50 of HCT-116) was 42.1, the “hydrolysis / release of [Au(TPP–COOH)]+ in cells” value (HCT116 cells [1]) was “hydrolysis of the ester bond of 1 in HCT116 cells to form [Au(TPP–COOH)]^+” and the “percent of apoptotic cells (FITC-Annexin V, background corrected)” value (HCT116 cells [2]) was 22.5%. The “percent of apoptotic cells (FITC-Annexin V, background corrected)” value (NCM460 cells) was 2.4%, the IC50 (MIHA; 72 h, read-out: 1 at IC50) was 14.5 µM and the IC50 (MIHA; [3]) was 14.5 µM. For the same substance, the IC50 (MIHA; [4]) was 14.5 ± 2.55 µM, the IC50 (A2780adr; 72 h, read-out: 1 at IC50) was 1510 nM and the IC50 (A2780adr; [3]) was 1510 nM. For the same substance, the IC50 (A2780adr; [4]) was 1510 ± 400 nM, the “Resistance found in A2780adr” value (A2780adr; IC50 of A2780adr cells / IC50 of A2780 cells) was 2.94 and the “Toxicity toward cancer cells compared to that toward CCD-19Lu cells, A2780adr” value (A2780adr; IC50 of CCD-19Lu cells / IC50 of A2780adr) was 10.1. For the same substance, the “Toxicity toward cancer cells compared to that toward MIHA cells, A2780adr” value (A2780adr; IC50 of MIHA cells / IC50 of A2780adr) was 9.1, the “Toxicity toward cancer cells compared to that toward NCM460 cells, A2780adr” value (A2780adr; IC50 of NCM460 cells / IC50 of A2780adr) was 10.9 and the IC50 (HeLa; 72 h, read-out: 1 at IC50) was 1910 nM. For the same substance, the IC50 (HeLa; [3]) was 1910 nM, the IC50 (HeLa; [4]) was 1910 ± 480 nM and the “Toxicity toward cancer cells compared to that toward CCD-19Lu cells, HeLa” value (HeLa; IC50 of CCD-19Lu cells / IC50 of HeLa) was 8.0. For the same substance, the “Toxicity toward cancer cells compared to that toward MIHA cells, HeLa” value (HeLa; IC50 of MIHA cells / IC50 of HeLa) was 7.6, the “Toxicity toward cancer cells compared to that toward NCM460 cells, HeLa” value (HeLa; IC50 of NCM460 cells / IC50 of HeLa) was 8.6 and the IC50 (NCM460) was 16.4 ± 2.45 µM. For the same substance, the IC50 (A2780cis; A2780cis, MTT assay, 72 h incubation) was 640 ± 30 nM, the “Resistance found in A2780cis” value (A2780cis; IC50 of A2780cis cells / IC50 of A2780 cells) was 1.27 and the “Toxicity toward cancer cells compared to that toward CCD-19Lu cells, A2780cis” value (A2780cis; IC50 of CCD-19Lu cells / IC50 of A2780cis) was 23.8. For the same substance, the “Toxicity toward cancer cells compared to that toward MIHA cells, A2780cis” value (A2780cis; IC50 of MIHA cells / IC50 of A2780cis) was 22.7 and the “Toxicity toward cancer cells compared to that toward NCM460 cells, A2780cis” value (A2780cis; IC50 of NCM460 cells / IC50 of A2780cis) was 25.6.
